Results on 16 molecules are retold here after US9555039B2, “Piperidine derivatives and compositions for the inhibition of nicotinamide phosphoribosyltransferase (NAMPT)” (Forma TM, LLC., priority 2011, dated 2017).

Test [1] deals with T1, Recombinant His-tagged NAMPT (Homo sapiens, UniProt P43490).
T1 construct: His; host or cells: E. coli
As to the kind of experiment: Biochemical inhibition assay: NAMPT enzymatic reaction, NMN quantified by mass spectrometry. The settings on record: 33 nM NAMPT, 1 μM NAM, 100 μM PRPP, 2.5 mM ATP, 30 minutes at room temperature; read-out: Biochem IC50. The procedure, abridged:
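Reaction 30 min at room temperature with 1 μM NAM, 100 μM PRPP, 2.5 mM ATP (final), quenched with formic acid. NMN quantified by RapidFire electrospray MS, normalized to L-cystathionine; IC50 from percent inhibition versus DMSO.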

In test [2] the test system is A2780 cells. As to the kind of experiment: In-vitro cell proliferation assay (SRB, 72 hours). The test is classed as cell-based. The settings on record: Homo sapiens, sulforhodamine B (SRB) assay. In a few lines:
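Background from media-only plate subtracted; inhibition relative to DMSO-treated cells, value derived by interpolation between two concentrations.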

T1 sequence (P43490 whole entry): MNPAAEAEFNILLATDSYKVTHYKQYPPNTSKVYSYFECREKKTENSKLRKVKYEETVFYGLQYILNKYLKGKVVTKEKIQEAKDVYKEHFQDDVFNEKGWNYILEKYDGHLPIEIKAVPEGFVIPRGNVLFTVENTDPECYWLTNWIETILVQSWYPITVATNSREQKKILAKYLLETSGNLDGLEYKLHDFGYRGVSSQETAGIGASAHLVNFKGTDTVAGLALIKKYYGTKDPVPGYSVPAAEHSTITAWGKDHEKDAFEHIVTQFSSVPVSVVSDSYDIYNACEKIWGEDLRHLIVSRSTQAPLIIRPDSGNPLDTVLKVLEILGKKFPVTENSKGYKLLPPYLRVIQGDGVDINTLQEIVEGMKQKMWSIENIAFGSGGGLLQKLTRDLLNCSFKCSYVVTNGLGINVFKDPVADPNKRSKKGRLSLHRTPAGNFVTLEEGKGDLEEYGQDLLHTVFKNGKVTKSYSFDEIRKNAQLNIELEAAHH

Regarding `O=C(NCCCCC1CCN(C(=O)c2ccncc2)CC1)c1cc2cnccc2[nH]1` [N-(4-{1-[(pyridin-4-yl)carbonyl]piperidin-4-yl}butyl)-1H-pyrrolo[3,2-c]pyridine-2-carboxamide], the IC50 in test [1] amounted to 9.7 nM; in test [2], 4.4 nM.

Turning to `O=C(NCCCCC1CCN(C(=O)c2ccc3[nH]ccc3c2)CC1)c1cc2ccncc2s1` [N-(4-{1-[(1H-indol-5-yl)carbonyl]piperidin-4-yl}butyl)thieno[2,3-c]pyridine-2-carboxamide], the IC50 in test [1] is 42.7 nM; in test [2], 71.1 nM.

Regarding `O=C(NCCCCC1CCN(C(=O)c2ccc(Cl)c(Cl)c2)CC1)c1cc2cnccc2[nH]1` [N-(4-{1-[(3,4-dichlorophenyl)carbonyl]piperidin-4-yl}butyl)-1H-pyrrolo[3,2-c]pyridine-2-carboxamide], the IC50 in test [1] came to 93 nM; in test [2] it was 58 nM.

In the case of `O=C(NCCCCC1CCN(C(=O)c2ccc(F)cc2)CC1)c1cc2ccncc2s1` [N-(4-{1-[(4-fluorophenyl)carbonyl]piperidin-4-yl}butyl)thieno[2,3-c]pyridine-2-carboxamide], the results for the IC50 in test [1] and in test [2] were 51.8 nM and 100 to 1000 nM, respectively.

On to `COc1ccc(C(=O)N2CCC(CCCCNC(=O)c3cc4cnccc4[nH]3)CC2)c(OC)c1` [N-(4-{1-[(2,4-dimethoxyphenyl)carbonyl]piperidin-4-yl}butyl)-1H-pyrrolo[3,2-c]pyridine-2-carboxamide], for which the IC50 came to 67.1 nM in test [1] and 3.3 nM in test [2].

For `COc1ccc(C(=O)N2CCC(CCCCNC(=O)c3ccc4nccn4c3)CC2)cc1F` [N-(4-{1-[(3-fluoro-4-methoxyphenyl)carbonyl]piperidin-4-yl}butyl)imidazo[1,2-a]pyridine-6-carboxamide], the figures for the IC50 in test [1] and in test [2] were 20.2 nM and 65.2 nM, respectively.

With `O=C(NCCCCC1CCN(C(=O)c2ccc(F)cn2)CC1)c1cc2cnccc2[nH]1` [N-(4-{1-[(5-fluoropyridin-2-yl)carbonyl]piperidin-4-yl}butyl)-1H-pyrrolo[3,2-c]pyridine-2-carboxamide], the IC50 in test [1] was found to be 57.2 nM; in test [2] it was 14 nM.

On to `Cc1nc(C)c(C(=O)N2CCC(CCCCNC(=O)c3ccc4nccn4c3)CC2)s1` [N-(4-{1-[(dimethyl-1,3-thiazol-5-yl)carbonyl]piperidin-4-yl}butyl)imidazo[1,2-a]pyridine-6-carboxamide], for which the IC50 in test [1] turned out to be 24.1 nM; in test [2], 6.6 nM.

With `Cc1nc(CC(=O)N2CCC(CCCCNC(=O)c3ccc4nccn4c3)CC2)cs1` [N-(4-{1-[2-(2-methyl-1,3-thiazol-4-yl)acetyl]piperidin-4-yl}butyl)imidazo[1,2-a]pyridine-6-carboxamide], the IC50 in test [1] came to 18.9 nM; in test [2], 28 nM.

For the molecule `O=C(NCCCCC1CCN(C(=O)c2ccc3cc[nH]c3c2)CC1)c1cc2ccncc2s1` [N-(4-{1-[(1H-indol-6-yl)carbonyl]piperidin-4-yl}butyl)thieno[2,3-c]pyridine-2-carboxamide], the IC50 in test [1] stood at 36.1 nM; in test [2], 70.3 nM.

Regarding `Cc1c(F)cccc1C(=O)N1CCC(CCCCNC(=O)c2cc3cnccc3[nH]2)CC1` [N-(4-{1-[(3-fluoro-2-methylphenyl)carbonyl]piperidin-4-yl}butyl)-1H-pyrrolo[3,2-c]pyridine-2-carboxamide], the IC50 was 20.5 nM in test [1] and 3.1 nM in test [2].

Regarding `CCOc1cccc(C(=O)N2CCC(CCCCNC(=O)c3cc4cnccc4[nH]3)CC2)c1` [N-(4-{1-[(3-ethoxyphenyl)carbonyl]piperidin-4-yl}butyl)-1H-pyrrolo[3,2-c]pyridine-2-carboxamide], the IC50 came out at 85.1 nM in test [1] and 11 nM in test [2].

For `Cc1c(F)cccc1C(=O)N1CCC(CCCCNC(=O)c2cc3ccncc3s2)CC1` [N-(4-{1-[(3-fluoro-2-methylphenyl)carbonyl]piperidin-4-yl}butyl)thieno[2,3-c]pyridine-2-carboxamide], the IC50 in test [1] is 6.8 nM; in test [2] it was 3.2 nM.

As for `Cn1c(C(=O)N2CCC(CCCCNC(=O)c3cc4ccncc4s3)CC2)cc2ccccc21` [N-(4-{1-[(1-methyl-1H-indol-2-yl)carbonyl]piperidin-4-yl}butyl)thieno[2,3-c]pyridine-2-carboxamide], the IC50 in test [1] was 65 nM; in test [2], 100 to 1000 nM.

Turning to `O=C(NCCCCC1CCN(C(=O)c2cc(Cl)ccc2Cl)CC1)c1cc2ccncc2s1` [N-(4-{1-[(2,5-dichlorophenyl)carbonyl]piperidin-4-yl}butyl)thieno[2,3-c]pyridine-2-carboxamide], the figures for the IC50 in test [1] and in test [2] were 16 nM and 7.1 nM, respectively.

With `O=C(NCCCCC1CCN(C(=O)c2cc(Cl)cc(Cl)c2)CC1)c1cc2ccncc2s1` [N-(4-{1-[(3,5-dichlorophenyl)carbonyl]piperidin-4-yl}butyl)thieno[2,3-c]pyridine-2-carboxamide], the IC50 in test [1] worked out at 30 nM; in test [2], 51.3 nM.
